Measured values: ChEMBL document CHEMBL3832761, “MMV Pathogen Box Bioactivity Data” (2017)
Converted amounts (≈) assume the structure as drawn.

Tests used:
Type in all cases: functional
[1] = test system: Mycobacterium tuberculosis; assay: AntiMycobacterium tuberculosis activity 2-week 7H9/DPPC/cholesterol/BSA/Tx MIC (uM); conditions: 336 h
[2] = test system: Mycobacterium tuberculosis; assay: AntiMycobacterium tuberculosis activity 2-week 7H9/glucose/BSA/Tx MIC (uM); conditions: 336 h
[3] = test system: Mycobacterium tuberculosis; assay: AntiMycobacterium tuberculosis activity Replicating form: Average MIC90 (uM)
[4] = test system: Mycobacterium tuberculosis; assay: AntiMycobacterium tuberculosis activity day 21 MIC99 in 7H9/2.5mM butyrate/pH6/0.1mM nitrite MIC99 (uM); conditions: 504 h
[5] = test system: Mycobacterium tuberculosis; assay: AntiMycobacterium tuberculosis activity 1-week 7H9/cholesterol/BSA/Tx MIC (uM); conditions: 168 h
[6] = test system: Mycobacterium tuberculosis; assay: AntiMycobacterium tuberculosis activity 1-week 7H9/DPPC/cholesterol/BSA/Tx MIC (uM); conditions: 168 h
[7] = test system: Mycobacterium tuberculosis; assay: (§1) AntiMycobacterium tuberculosis activity day 10 in 7H9/2.5mM butyrate/pH6/0.1mM nitrite MIC90 (uM); conditions: 240 h
[8] = test system: Mycobacterium tuberculosis; assay: AntiMycobacterium tuberculosis activity day 21 in 7H9/2.5mM butyrate/pH6/0.1mM nitrite MIC90 (uM); conditions: 504 h
[9] = test system: Mycobacterium tuberculosis; assay: as §1; conditions: 240 h; remark: listed apart in the source
[10] = test system: Mycobacterium tuberculosis; assay: AntiMycobacterium tuberculosis activity 1-week GAST/Fe MIC (uM); conditions: 168 h
[11] = test system: Mycobacterium tuberculosis; assay: AntiMycobacterium tuberculosis activity 2-week 7H9/ADC/Tw MIC (uM); conditions: 336 h
[12] = test system: Mycobacterium tuberculosis; assay: AntiMycobacterium tuberculosis activity 2-week Alamar Blue 7H9/cholesterol/BSA/Tx MIC (uM); conditions: 336 h
[13] = test system: HepG2; assay: HepG2 CC50 (uM) Cytotoxicity; conditions: Homo sapiens
[14] = test system: Mycobacterium tuberculosis; assay: AntiMycobacterium tuberculosis activity 2-week GAST/Fe MIC (uM); conditions: 336 h
[15] = test system: Mycobacterium tuberculosis; assay: AntiMycobacterium tuberculosis activity 2-week Alamar Blue 7H9/ADC/Tw MIC (uM); conditions: 336 h
[16] = test system: Mycobacterium tuberculosis; assay: AntiMycobacterium tuberculosis activity 1-week 7H9/glucose/BSA/Tx MIC (uM); conditions: 168 h
[17] = test system: Mycobacterium tuberculosis; assay: AntiMycobacterium tuberculosis activity Non-Replicating form: Average MIC90 (uM)
[18] = test system: Mycobacterium tuberculosis; assay: AntiMycobacterium tuberculosis activity 1-week 7H9/ADC/Tw MIC (uM); conditions: 168 h

| Compound | MIC [1] | MIC [2] | MIC90 [3] | MIC [4] | MIC [5] | MIC [6] | MIC90 [7] | MIC90 [8] | MIC90 [9] | MIC [10] | MIC [11] | MIC [12] | CC50 [13] | MIC [14] | MIC [15] | MIC [16] | MIC90 [17] | MIC [18] |
| --- | --- | --- | --- | --- | --- | --- | --- | --- | --- | --- | --- | --- | --- | --- | --- | --- | --- | --- |
| FC(F)(F)c1nnc2ccc(Cl)nn12 | 6.25 µM (≈ 1.39 µg/mL) | 4.7 µM (≈ 1.05 µg/mL) | 6.37 µM (≈ 1.42 µg/mL) | > 50 µM | 4.7 µM (≈ 1.05 µg/mL) | 4.7 µM (≈ 1.05 µg/mL) | 3.12 µM (≈ 0.694 µg/mL) | 50 µM (≈ 11.1 µg/mL) | > 50 µM | 0.6 µM (≈ 0.134 µg/mL) | 6.25 µM (≈ 1.39 µg/mL) | 6.25 µM (≈ 1.39 µg/mL) | > 100 µM | 1.2 µM (≈ 0.267 µg/mL) | 4.7 µM (≈ 1.05 µg/mL) | 3.13 µM (≈ 0.697 µg/mL) | 7.75 µM (≈ 1.72 µg/mL) | 3.13 µM (≈ 0.697 µg/mL) |
| Cc1ccc2oc(-c3cc(NC(=O)Cc4ccccc4)ccc3Cl)nc2c1 | 12.5 µM (≈ 4.71 µg/mL) | 25 µM (≈ 9.42 µg/mL) | 3.58 µM (≈ 1.35 µg/mL) | > 50 µM | 25 µM (≈ 9.42 µg/mL) | 12.5 µM (≈ 4.71 µg/mL) | > 50 µM | > 50 µM | > 50 µM | 6.25 µM (≈ 2.36 µg/mL) | 25 µM (≈ 9.42 µg/mL) | 25 µM (≈ 9.42 µg/mL) | 83.6 µM | 9.4 µM (≈ 3.54 µg/mL) | 25 µM (≈ 9.42 µg/mL) | 25 µM (≈ 9.42 µg/mL) | > 100 µM | 25 µM (≈ 9.42 µg/mL) |
| COc1ccc2nc(C)cc(OCC(=O)Nc3ccccc3OC)c2c1 | 25 µM (≈ 8.81 µg/mL) | 50 µM (≈ 17.6 µg/mL) | > 50 µM | > 50 µM | 12.5 µM (≈ 4.4 µg/mL) | 1.56 µM (≈ 0.55 µg/mL) | > 50 µM | > 50 µM | > 50 µM | 0.05 µM (≈ 0.0176 µg/mL) | > 50 µM | 2.3 µM (≈ 0.81 µg/mL) | 57.4 µM | 0.1 µM (≈ 0.0352 µg/mL) | 2.3 µM (≈ 0.81 µg/mL) | 25 µM (≈ 8.81 µg/mL) | 1.61 µM (≈ 0.567 µg/mL) | 37 µM (≈ 13 µg/mL) |
| N#Cc1nc(-c2ccccc2)oc1S(=O)(=O)c1ccc(Cl)cc1 | 12.5 µM (≈ 4.31 µg/mL) | 6.25 µM (≈ 2.15 µg/mL) | 2.59 µM (≈ 0.893 µg/mL) | > 50 µM | 6.25 µM (≈ 2.15 µg/mL) | 6.25 µM (≈ 2.15 µg/mL) | 6.25 µM (≈ 2.15 µg/mL) | 12.5 µM (≈ 4.31 µg/mL) | > 50 µM | 0.6 µM (≈ 0.207 µg/mL) | 6.25 µM (≈ 2.15 µg/mL) | 12.5 µM (≈ 4.31 µg/mL) | 2.2 µM | 0.6 µM (≈ 0.207 µg/mL) | 6.25 µM (≈ 2.15 µg/mL) | 3.13 µM (≈ 1.08 µg/mL) | 0.41 µM (≈ 0.141 µg/mL) | 3.13 µM (≈ 1.08 µg/mL) |
| C[C@]1(COc2ccc(N3CCC(Oc4ccc(OC(F)(F)F)cc4)CC3)cc2)Cn2cc([N+](=O)[O-])nc2O1 | 0.1 µM (≈ 0.0534 µg/mL) | 0.05 µM (≈ 0.0267 µg/mL) | 0.08 µM (≈ 0.0428 µg/mL) | > 50 µM | 0.05 µM (≈ 0.0267 µg/mL) | < 0.02 µM | 0.39 µM (≈ 0.208 µg/mL) | 12.5 µM (≈ 6.68 µg/mL) | > 50 µM | 0.1 µM (≈ 0.0534 µg/mL) | 0.15 µM (≈ 0.0802 µg/mL) | 0.6 µM (≈ 0.321 µg/mL) | 72.5 µM | 0.15 µM (≈ 0.0802 µg/mL) | 0.15 µM (≈ 0.0802 µg/mL) | 0.2 µM (≈ 0.107 µg/mL) | 0.2 µM (≈ 0.107 µg/mL) | 0.07 µM (≈ 0.0374 µg/mL) |
| Cc1ccc2[nH]c(C3CCCNC3)c(-c3ccncc3)c2c1 (stereo unspecified) | 9.4 µM (≈ 2.74 µg/mL) | 50 µM (≈ 14.6 µg/mL) | 19.5 µM (≈ 5.68 µg/mL) | 25 µM (≈ 7.28 µg/mL) | 6.25 µM (≈ 1.82 µg/mL) | 9.4 µM (≈ 2.74 µg/mL) | 6.25 µM (≈ 1.82 µg/mL) | 12.5 µM (≈ 3.64 µg/mL) | 25 µM (≈ 7.28 µg/mL) | 1.56 µM (≈ 0.455 µg/mL) | 50 µM (≈ 14.6 µg/mL) | 9.4 µM (≈ 2.74 µg/mL) | 12.7 µM | 2.3 µM (≈ 0.67 µg/mL) | 12.5 µM (≈ 3.64 µg/mL) | 25 µM (≈ 7.28 µg/mL) | 50.5 µM (≈ 14.7 µg/mL) | 37 µM (≈ 10.8 µg/mL) |
| Cn1ccnc1CNCCS(=O)(=O)c1cccc(Nc2ccc(-c3cccc(F)c3)cn2)c1 | ≥ 50 µM | > 50 µM | > 100 µM | > 50 µM | 25 µM (≈ 11.6 µg/mL) | 12.5 µM (≈ 5.82 µg/mL) | > 50 µM | > 50 µM | > 50 µM | 25 µM (≈ 11.6 µg/mL) | > 50 µM | 37 µM (≈ 17.2 µg/mL) | 46.1 µM | 25 µM (≈ 11.6 µg/mL) | > 50 µM | 19 µM (≈ 8.85 µg/mL) | > 100 µM | 50 µM (≈ 23.3 µg/mL) |
| CCCn1c(CNc2ccccc2O)nc2ccccc21 | 6.25 µM (≈ 1.76 µg/mL) | 12.5 µM (≈ 3.52 µg/mL) | 12.7 µM (≈ 3.57 µg/mL) | > 50 µM | 6.25 µM (≈ 1.76 µg/mL) | 6.25 µM (≈ 1.76 µg/mL) | 3.12 µM (≈ 0.878 µg/mL) | 6.25 µM (≈ 1.76 µg/mL) | > 50 µM | 1.56 µM (≈ 0.439 µg/mL) | 9.4 µM (≈ 2.64 µg/mL) | 6.25 µM (≈ 1.76 µg/mL) | 84.1 µM | 1.56 µM (≈ 0.439 µg/mL) | 6.25 µM (≈ 1.76 µg/mL) | 12.5 µM (≈ 3.52 µg/mL) | 7.04 µM (≈ 1.98 µg/mL) | 9.4 µM (≈ 2.64 µg/mL) |
| COc1cc(C(F)(F)F)nc2ccc(C)c(N)c12 | 50 µM (≈ 12.8 µg/mL) | > 50 µM | > 100 µM | > 50 µM | 2.3 µM (≈ 0.589 µg/mL) | 4.7 µM (≈ 1.2 µg/mL) | 3.12 µM (≈ 0.799 µg/mL) | 6.25 µM (≈ 1.6 µg/mL) | > 50 µM | 0.2 µM (≈ 0.0512 µg/mL) | > 50 µM | 3.13 µM (≈ 0.802 µg/mL) | > 100 µM | 0.6 µM (≈ 0.154 µg/mL) | 12.5 µM (≈ 3.2 µg/mL) | 25 µM (≈ 6.41 µg/mL) | 16.1 µM (≈ 4.12 µg/mL) | > 50 µM |
| NC(=O)c1cc(Br)ccc1OCCOc1ccccc1 | > 50 µM | > 50 µM | > 100 µM | > 50 µM | 50 µM (≈ 16.8 µg/mL) | > 50 µM | 50 µM (≈ 16.8 µg/mL) | > 50 µM | > 50 µM | 6.25 µM (≈ 2.1 µg/mL) | > 50 µM | > 50 µM | > 100 µM | 37 µM (≈ 12.4 µg/mL) | > 50 µM | > 50 µM | > 100 µM | > 50 µM |
| NCC(c1cccs1)S(=O)(=O)c1ccccc1 (stereo unspecified) | 50 µM (≈ 13.4 µg/mL) | 25 µM (≈ 6.68 µg/mL) | 20.7 µM (≈ 5.52 µg/mL) | > 50 µM | 50 µM (≈ 13.4 µg/mL) | 50 µM (≈ 13.4 µg/mL) | 25 µM (≈ 6.68 µg/mL) | 25 µM (≈ 6.68 µg/mL) | > 50 µM | 1.56 µM (≈ 0.417 µg/mL) | 25 µM (≈ 6.68 µg/mL) | 50 µM (≈ 13.4 µg/mL) | 35.4 µM | 2.3 µM (≈ 0.615 µg/mL) | 25 µM (≈ 6.68 µg/mL) | 25 µM (≈ 6.68 µg/mL) | 19.6 µM (≈ 5.24 µg/mL) | 19 µM (≈ 5.08 µg/mL) |
| O=C(Nc1ccc(C(F)(F)F)c(C(F)(F)F)c1)c1cc(Cl)ccc1O | 3.13 µM (≈ 1.2 µg/mL) | 3.13 µM (≈ 1.2 µg/mL) | 2.33 µM (≈ 0.894 µg/mL) | 1.5 µM (≈ 0.576 µg/mL) | 1.56 µM (≈ 0.599 µg/mL) | 2.3 µM (≈ 0.882 µg/mL) | 1.5 µM (≈ 0.576 µg/mL) | 1.5 µM (≈ 0.576 µg/mL) | 1.5 µM (≈ 0.576 µg/mL) | 1.56 µM (≈ 0.599 µg/mL) | 4.7 µM (≈ 1.8 µg/mL) | 1.56 µM (≈ 0.599 µg/mL) | 0.7 µM | 2.3 µM (≈ 0.882 µg/mL) | 4.7 µM (≈ 1.8 µg/mL) | 1.56 µM (≈ 0.599 µg/mL) | 0.1 µM (≈ 0.0384 µg/mL) | 3.13 µM (≈ 1.2 µg/mL) |
